{
  "source": "patent US7691416B2",
  "about": "“Methods of treating vascular disease” (priority 2002, dated 2010)",
  "key": {"p38 MAPK": {"test_system": "p38 MAPK", "assay": "Western blot of phosphorylated p38 MAPK in SMC", "format": "cell-based, mouse", "from_the_text": "Animals. Male (250-350 g) Brown Norway rats (RT1^n) were used as aortic graft donors and male (250-350 g) Lewis rats (RT11) as recipients. Dawley (400-450 g) rats were used in the balloon injury model. Adult male C57BL/6, C57/S129, p21^−/− and p53^−/− null mice were purchased from Jackson Laboratory (Bar Harbor, Me.). mkk3^(−/−) null mice were generated as described Lu et al. (EMBO. 18:1845-1857 (1999)). The inos^−/− and enos^−/− mice were bred at the University of Pittsburgh. Aortic transplant model. Aortic transplantation was performed as described in Shimizu et al. (Nat. Med. 7:738-741 (2001)). Briefly, 3 to 4 cm of descending aorta was harvested from the donor and implanted between the renal arteries and the aortic bifurcation of the recipient. Both edges of the native abdominal aorta were ligated. Balloon injury model. Balloon angioplasty was carried out as described in Murakami et al. (Atherosclerosis 157:361-368 (2001)). Briefly, a 2 Fr. arterial embolectomy catheter (Baxter, Chicago, Ill.) was inserted into the common carotid artery, and injury was created by inflating the balloon to 5 atmospheres of pressure for 5 minutes. The arteries were flushed and the external carotid artery was ligated, ensuring return of blood flow through the common and internal carotid arteries. Injury of the vessel wall and subsequent pathological analysis was made in a manner that was blinded to the treatment group. CO exposure. CO was delivered to animals as described in Otterbein et al. (Nat. Med. 6:422-428 (2000)). Graft donors and recipients were exposed to CO (250 ppm) for two days before transplantation and for 56 days immediately following transplantation. In the balloon injury model, rats received either no pretreatment or were exposed to CO (250 ppm) for one hour prior to injury. Following surgery rats were housed in room air for two weeks. Cells. Primary mouse and rat smooth muscle cells (SMC) were isolated and cultured as described in Laubach et al. (Proc Natl Acad Sci USA 92:10688-9 (1995)). Mouse SMC isolated from HO-1^−/− mice were obtained as described in Duckers et al. (Nat. Med. 7:693-698 (2001)). Cell treatment and reagents. Guanylate cyclase inhibitor 1H(1,2,4) oxadiazolo(4,3-a)quinoxalin-1 (ODQ; Calbiochem-Novabiochem, San Diego, Calif.; 10-100 μM) and p38 MAPK inhibitor pyridinyl imidazol SB203580 (Calbiochem; 5-20 μM) were dissolved in DMSO. […] [^3H]thymidine incorporation was measured by scintillation spectroscopy and presented as mean counts/min/well. […] Areas from eight to ten captured images were calculated using digital imaging software as number of pixels corresponding to those areas. Twenty-four to forty-eight sections from each group were statistically analyzed with SPSS software version 10. […]"}, "p21Cip1": {"test_system": "p21Cip1", "assay": "Western blot of p21Cip1 expression", "format": "cell-based, mouse", "from_the_text": "(§1) Animals. Male (250-350 g) Brown Norway rats (RT1^n) were used as aortic graft donors and male (250-350 g) Lewis rats (RT11) as recipients. Dawley (400-450 g) rats were used in the balloon injury model. Adult male C57BL/6, C57/S129, p21^−/− and p53^−/− null mice were purchased from Jackson Laboratory (Bar Harbor, Me.). mkk3^(−/−) null mice were generated as described Lu et al. (EMBO. 18:1845-1857 (1999)). The inos^−/− and enos^−/− mice were bred at the University of Pittsburgh. Aortic transplant model. Aortic transplantation was performed as described in Shimizu et al. (Nat. Med. 7:738-741 (2001)). Briefly, 3 to 4 cm of descending aorta was harvested from the donor and implanted between the renal arteries and the aortic bifurcation of the recipient. Both edges of the native abdominal aorta were ligated. Balloon injury model. Balloon angioplasty was carried out as described in Murakami et al. (Atherosclerosis 157:361-368 (2001)). Briefly, a 2 Fr. arterial embolectomy catheter (Baxter, Chicago, Ill.) was inserted into the common carotid artery, and injury was created by inflating the balloon to 5 atmospheres of pressure for 5 minutes. The arteries were flushed and the external carotid artery was ligated, ensuring return of blood flow through the common and internal carotid arteries. Injury of the vessel wall and subsequent pathological analysis was made in a manner that was blinded to the treatment group. CO exposure. CO was delivered to animals as described in Otterbein et al. (Nat. Med. 6:422-428 (2000)). Graft donors and recipients were exposed to CO (250 ppm) for two days before transplantation and for 56 days immediately following transplantation. In the balloon injury model, rats received either no pretreatment or were exposed to CO (250 ppm) for one hour prior to injury. Following surgery rats were housed in room air for two weeks. Cells. Primary mouse and rat smooth muscle cells (SMC) were isolated and cultured as described in Laubach et al. (Proc Natl Acad Sci USA 92:10688-9 (1995)). Mouse SMC isolated from HO-1^−/− mice were obtained as described in Duckers et al. (Nat. Med. 7:693-698 (2001)). Cell treatment and reagents. Guanylate cyclase inhibitor 1H(1,2,4) oxadiazolo(4,3-a)quinoxalin-1 (ODQ; Calbiochem-Novabiochem, San Diego, Calif.; 10-100 μM) and p38 MAPK inhibitor pyridinyl imidazol SB203580 (Calbiochem; 5-20 μM) were dissolved in DMSO. The cGMP analogue 8-bromo-cGMP sodium salt (8-Br-cGMP; Sigma-Aldrich, St. Louis, Mo.; 10-100 μM) and the PKG inhibitor (10-100 μM; Alexis Biochemicals) were dissolved in water. Cell counts and [^3H] thymidine incorporation. Rat and mouse SMC were isolated and cultured as described in Peyton et al. (Blood 99:4443-4448 (2002)). Proliferation assays were carried out as described in Petkova et al. (J Biol. Chem. 276:7932-7936 (2001)). For [^3H] thymidine incorporation studies, cells were serum-starved overnight and then stimulated with 10% serum containing 5 μCi/ml [^3H] thymidine (New England Nuclear, Boston Mass.). [^3H]thymidine incorporation was measured by scintillation spectroscopy and presented as mean counts/min/well. Histomorphometric analysis. Aortic grafts and carotid arteries were harvested at 56 and 14 days respectively. Vessels were fixed, embedded, and serially sectioned (5μ) in toto. Every third slide was stained with Hematoxylin and Eosin (H&E) for histomorphometric analyses. In both models, one or two images per slide at a resolution of 1520×1080 pixels were captured at a magnification of 25× with a Zeiss microscope (Axioskop, Iowa City, Iowa), RT color SPOT (Diagnostic Instrument, Inc., Saint Joseph, Mich.) and Windows NT (Compaq Computer) using Adobe Photoshop version 5.5 software. Areas from eight to ten captured images were calculated using digital imaging software as number of pixels corresponding to those areas. Twenty-four to forty-eight sections from each group were statistically analyzed with SPSS software version 10. Immunostaining and cell population histomorphometric analysis. […]"}, "mouse SMC": {"test_system": "mouse SMC", "assay": "SMC proliferation, [3H]thymidine incorporation", "format": "cell-based", "from_the_text": "as §1"}, "[1]": {"test_system": "intimal hyperplasia after balloon injury of the carotid artery", "assay": "Balloon injury model of the carotid artery", "format": "in vivo, rat", "conditions": "NO 250 ppm; one hour pre-treatment", "from_the_text": "(§2) Animals. Male (250-350 g) Brown Norway rats (RT1^n) were used as aortic graft donors and male (250-350 g) Lewis rats (RT11) as recipients. Dawley (400-450 g) rats were used in the balloon injury model. Adult male C57BL/6, C57/S129, p21^−/− and p53^−/− null mice were purchased from Jackson Laboratory (Bar Harbor, Me.). mkk3^(−/−) null mice were generated as described Lu et al. (EMBO. 18:1845-1857 (1999)). The inos^−/− and enos^−/− mice were bred at the University of Pittsburgh. Aortic transplant model. Aortic transplantation was performed as described in Shimizu et al. (Nat. Med. 7:738-741 (2001)). Briefly, 3 to 4 cm of descending aorta was harvested from the donor and implanted between the renal arteries and the aortic bifurcation of the recipient. Both edges of the native abdominal aorta were ligated. Balloon injury model. Balloon angioplasty was carried out as described in Murakami et al. (Atherosclerosis 157:361-368 (2001)). […] [^3H]thymidine incorporation was measured by scintillation spectroscopy and presented as mean counts/min/well. […] Areas from eight to ten captured images were calculated using digital imaging software as number of pixels corresponding to those areas. Twenty-four to forty-eight sections from each group were statistically analyzed with SPSS software version 10. […]"}, "[2]": {"assay": "Nitric oxide exposure of rats before balloon angioplasty", "format": "in vivo, rat", "conditions": "NO administered at 500 ppm, 1 hour", "from_the_text": "as §2"}},
  "data": [
    {"smiles": "Nc1nc2c(nc(Br)n2[C@@H]2O[C@@H]3COP(=O)([O-])O[C@H]3[C@H]2O)c(=O)[nH]1.[Na+]", "note": "[8-Br-cGMP, 8-Bromoguanosine 3′-5′-cyclic monophosphate sodium salt, reference compound]", "values": [
      {"measurement": "p38 MAPK activation", "setting": "p38 MAPK; SMC exposed to the cGMP analogue", "result": "activated"},
      {"measurement": "p21Cip1 expression", "setting": "p21Cip1; SMC exposed to the cGMP analogue, comparably to CO", "result": "increased"},
      {"measurement": "Suppression of proliferation by the cGMP analogue", "setting": "mouse SMC; SMC derived from p21-/- mice", "result": "impaired"},
      {"measurement": "SMC proliferation", "setting": "mouse SMC; wild type SMC exposed to the cGMP analogue", "result": "suppressed"}
    ]},
    {"smiles": "[N]=O", "note": "[NO, Nitric Oxide, reference compound]", "values": [
      {"measurement": "Intimal thickening triggered by balloon injury", "setting": "[1]", "result": "did not modulate"},
      {"measurement": "Lethality", "setting": "[2]", "result": "lethal"}
    ]},
    {"smiles": "O=c1onc2cnc3ccccc3n12", "note": "[ODQ, 1H(1,2,4) oxadiazolo(4,3-a)quinoxalin-1, reference compound]", "values": [
      {"measurement": "Activation of p38 MAPK by CO when cGMP generation is blocked", "setting": "p38 MAPK; CO plus ODQ", "result": "abolished"},
      {"measurement": "Ability of CO to up-regulate p21Cip1 expression under guanylate cyclase inhibition", "setting": "p21Cip1; CO plus ODQ", "result": "impaired"},
      {"measurement": "Ability of CO to suppress SMC proliferation under guanylate cyclase inhibition", "setting": "mouse SMC; CO 250 ppm plus ODQ", "result": "impaired"}
    ]},
    {"smiles": "C[S+]([O-])c1ccc(-c2nc(-c3ccncc3)c(-c3ccc(F)cc3)[nH]2)cc1", "note": "(centres unmarked) [SB203580, reference compound]", "values": [
      {"measurement": "Ability of 8Br-cGMP to up-regulate expression of p21Cip1 in presence of p38 MAPK inhibitor", "setting": "p21Cip1; 8Br-cGMP plus SB203580", "result": "suppressed"},
      {"measurement": "Ability of CO to up-regulate expression of p21Cip1 in presence of p38 MAPK inhibitor", "setting": "p21Cip1; CO 250 ppm plus SB203580", "result": "blocked"},
      {"measurement": "Anti-proliferative effect of 8Br-cGMP in presence of p38 MAPK inhibitor", "setting": "mouse SMC; 8Br-cGMP plus SB203580", "result": "abrogated"},
      {"measurement": "Anti-proliferative effect of CO in presence of p38 MAPK inhibitor", "setting": "mouse SMC; CO 250 ppm plus SB203580", "result": "suppressed"},
      {"measurement": "Effects of CO on proliferation in presence of p38 MAPK inhibitor", "setting": "mouse SMC; SMC from p21-/- mice, CO 250 ppm plus SB203580", "result": "did not modulate"}
    ]}
  ]
}
